Five compounds from ChEMBL document CHEMBL3045684, “Compatibility of traditional and novel acaricides with bumblebees (Bombus terrestris): a first laboratory assessment of toxicity and sublethal effects” (Pest Manag Sci, 2010) can be followed below.

Test [1] has as its system Bombus terrestris. Nature of the test: Toxicity against worker Bombus terrestris (bumblebee) assessed as mortality at 150 mg a.i./l, po administered through sugar water for 11 weeks measured everyday for 3 days followed by once a week for 11 weeks. In kind it is functional.
In test [2] the test system is Bombus terrestris. Nature of the test: Contact toxicity against worker Bombus terrestris (bumblebee) assessed as reduction in reproduction at 150 mg a.i./l applied on the dorsal thorax for 11 weeks measured once a week for 11 weeks relative to control. In kind it is functional, organism-based.
For test [3], the system named is Bombus terrestris. Nature of the test: Toxicity against worker Bombus terrestris (bumblebee) assessed as reduction in reproduction at 150 mg a.i./l, po administered through sugar water for 11 weeks measured once a week for 11 weeks relative to control. In kind it is functional, organism-based.
The test system of test [4] is Bombus terrestris. Description: Contact toxicity against worker Bombus terrestris (bumblebee) assessed as mortality at 150 mg a.i./l applied on the dorsal thorax for 11 weeks measured everyday for 3 days followed by once a week for 11 weeks. In kind it is functional.
The subject of test [5] is Bombus terrestris. Description: Toxicity against worker Bombus terrestris (bumblebee) assessed as reduction in reproduction at 150 mg a.i./l, po administered through pollen for 11 weeks measured once a week for 11 weeks. In kind it is functional. Also noted: scale not given: the % may be the effect or the level left.
Test [6] relates to Bombus terrestris. Description: Toxicity against worker Bombus terrestris (bumblebee) assessed as mortality at 150 mg a.i./l, po administered through pollen for 11 weeks measured everyday for 3 days followed by once a week for 11 weeks. In kind it is functional, organism-based.
For test [7], the system named is Bombus terrestris. Nature of the test: Contact toxicity against Bombus terrestris (bumblebee) assessed per bee. In kind it is functional.
Test [8] has as its system Apis mellifera. Nature of the test: Contact toxicity against Apis mellifera (honey bee) assessed per bee after 48 hr. In kind it is functional.
For test [9], the system named is Bombus terrestris. Nature of the test: Toxicity against po dosed worker Bombus terrestris (bumblebee) administered through sugar water for 11 weeks measured everyday for 3 days followed by once a week for 11 weeks. In kind it is functional.
The test system of test [10] is Bombus terrestris. Description: Toxicity against worker Bombus terrestris (bumblebee) assessed as reduction in reproduction at 30 mg a.i./l, po administered through sugar water for 11 weeks measured once a week for 11 weeks relative to control. In kind it is functional, organism-based.
Test [11] deals with Apis mellifera. Nature of the test: Contact toxicity against Apis mellifera (honey bee) assessed per bee. In kind it is functional.
For test [12], the system named is Bombus terrestris. Description: Contact toxicity against worker Bombus terrestris (bumblebee) assessed as mortality at 96 mg a.i./l applied on the dorsal thorax for 11 weeks measured everyday for 3 days followed by once a week for 11 weeks. In kind it is functional.
Test [13] concerns Bombus terrestris. Nature of the test: Contact toxicity against worker Bombus terrestris (bumblebee) assessed as reduction in reproduction at 96 mg a.i./l applied on the dorsal thorax for 11 weeks measured once a week for 11 weeks relative to control. In kind it is functional, organism-based.
Test [14] relates to Bombus terrestris. Nature of the test: Toxicity against worker Bombus terrestris (bumblebee) assessed as reduction in reproduction at 96 mg a.i./l, po administered through sugar water for 11 weeks measured once a week for 11 weeks relative to control. In kind it is functional, organism-based.
Test [15] concerns Bombus terrestris. Description: Toxicity against worker Bombus terrestris (bumblebee) assessed as mortality at 96 mg a.i./l, po administered through pollen for 11 weeks measured everyday for 3 days followed by once a week for 11 weeks. In kind it is functional, organism-based.
For test [16], the system named is Bombus terrestris. Nature of the test: Toxicity against worker Bombus terrestris (bumblebee) assessed as mortality at 96 mg a.i./l, po administered through sugar water for 11 weeks measured everyday for 3 days followed by once a week for 11 weeks. In kind it is functional.
Test [17] deals with Bombus terrestris. Description: Toxicity against worker Bombus terrestris (bumblebee) assessed as mortality at 96 mg a.i./l, po administered through sugar water measured up to 1 week. In kind it is functional, organism-based.
In test [18] the test system is Bombus terrestris. Description: Contact toxicity against worker Bombus terrestris (bumblebee) assessed as reduction in reproduction at 500 mg a.i./l applied on the dorsal thorax for 11 weeks measured once a week for 11 weeks relative to control. In kind it is functional, organism-based.
Test [19] relates to Bombus terrestris. Description: Contact toxicity against worker Bombus terrestris (bumblebee) assessed as mortality at 500 mg a.i./l applied on the dorsal thorax for 11 weeks measured everyday for 3 days followed by once a week for 11 weeks. In kind it is functional.
Test [20] concerns Bombus terrestris. Nature of the test: Toxicity against worker Bombus terrestris (bumblebee) assessed as mortality at 500 mg a.i./l, po administered through sugar water for 11 weeks measured everyday for 3 days followed by once a week for 11 weeks. In kind it is functional.
The test system of test [21] is Bombus terrestris. Nature of the test: Toxicity against worker Bombus terrestris (bumblebee) assessed as reduction in reproduction at 500 mg a.i./l, po administered through sugar water for 11 weeks measured once a week for 11 weeks relative to control. In kind it is functional, organism-based.
For test [22], the system named is Bombus terrestris. Nature of the test: Toxicity against worker Bombus terrestris (bumblebee) assessed as mortality at 500 mg a.i./l, po administered through pollen for 11 weeks measured everyday for 3 days followed by once a week for 11 weeks. In kind it is functional, organism-based.
Test [23] relates to Bombus terrestris. Nature of the test: Toxicity against worker Bombus terrestris (bumblebee) assessed as reduction in reproduction at 500 mg a.i./l, po administered through pollen for 11 weeks measured once a week for 11 weeks. Details: scale not given: the % may be the effect or the level left. In kind it is functional.

The term mortality denotes the percentage killed. In general, NOAEL refers to the highest dose or exposure tested at which no adverse effect was seen.

Active and inactive are the calls of the source. The rule behind the calls is not given here. Some results are limits rather than exact numbers.

On to `CCCCCCCCCCCCC1=C(OC(C)=O)C(=O)c2ccccc2C1=O` [ACEQUINOCYL], for which the mortality at 150 µg/mL in the test on Bombus terrestris [1] and in the test with Bombus terrestris [4] was below 25% in each case. Moreover, the result in the test with Bombus terrestris [2] and in the test on Bombus terrestris [3] was Active. Besides, the Activity with Bombus terrestris [5] is listed as 50%. Besides, in the test on Bombus terrestris [6], the result was inactive.

With `COc1ccc(-c2ccccc2)cc1NNC(=O)OC(C)C` [BIFENAZATE], the LD50 in the test with Bombus terrestris [7] was above 100 µg; in the test with Apis mellifera [8] it was 8.5 µg; in the test on Apis mellifera [11], below 1 µg. Moreover, the LC50 in the test on Bombus terrestris [9] amounted to 9.6 mgAi/L. For the same compound, the NOAEL in the test with Bombus terrestris [9] is given as 0.096 mgAi/L. Further, the result with Bombus terrestris [10], in the test on Bombus terrestris [14] and in the test on Bombus terrestris [17] was Active. The mortality at 96 µg/mL is below 25% with Bombus terrestris [12] and 95% with Bombus terrestris [16]. For the same compound, the result in the test on Bombus terrestris [13] and with Bombus terrestris [15] was inactive.

Regarding `CC(C)OC(=O)C(O)(c1ccc(Br)cc1)c1ccc(Br)cc1` [BROMOPROPYLATE], the outcome in the test with Bombus terrestris [18] and with Bombus terrestris [22] was inactive. Moreover, the mortality at 500 µg/mL in the test on Bombus terrestris [19] and in the test with Bombus terrestris [20] was below 25% in each case. The result in the test on Bombus terrestris [21] was Active. In addition, in the test with Bombus terrestris [23], the Activity was found to be 50%.

With `Clc1ccccc1-c1nnc(-c2ccccc2Cl)nn1` [CLOFENTEZINE], the mortality at 150 µg/mL in the test on Bombus terrestris [1] was 50%; in the test on Bombus terrestris [4] it was below 25%. For the same compound, in the test with Bombus terrestris [2], the result was Active. The Activity in the test on Bombus terrestris [5] is on record as 50%. For the same compound, the outcome in the test on Bombus terrestris [6] was inactive.

With `ClC1=C(Cl)C(Cl)(C2(Cl)C(Cl)=C(Cl)C(Cl)=C2Cl)C(Cl)=C1Cl` [DIENOCHLOR], the outcome in the test on Bombus terrestris [18] and in the test on Bombus terrestris [22] was inactive. Besides, the mortality at 500 µg/mL in the test on Bombus terrestris [19] was below 25%; with Bombus terrestris [20], 85%. Also, in the test on Bombus terrestris [21], the outcome was Active. In addition, the Activity with Bombus terrestris [23] turned out to be 50%.
